From patent US5853463A, “Marine antifouling agent” (Rohm and Haas Company, priority 1998, dated 1998)
≈ marks a conversion by molar mass, not a printed value. Where two headings read alike, the source gives them in different places.

Legend:
Artemia = test: Toxicity to Artemia (LC100 of nauplii); type: in vivo, Artemia satlina; conditions: 24 Hours, 25° C.
Description: Tests were conducted to determine the toxicity of the marine antifouling agents of the present invention to Artemia. Artemia are indicative of hard fouling organisms.
Substitute ocean water was prepared following ASTM Method D 1141-90. The water was sterilized by filtration through a 0.22 micron cellulose acetate membrane filter. San Francisco Bay Brand® (San Francisco Bay Brand, Inc., Newark, Calif.) Artemia satlina cysts were purchased from a local aquarium supply store. The cysts were hatched in a 250 mL Erlenmeyer flask. The Artemia cysts (0.2 g) were weighed into a sterilized flask. One hundred mL of sterile ASTM sea water was added to the flask. The flask was placed on an orbital shaker set at approximately 150 rotations per minute and 28° C. After 24 hours, the contents of the flask were poured into a separatory funnel. The egg shells were separated from the Artemia nauplii (larvae), as the shells floated to the top. The nauplii were returned to the flask for another 24 hours shaking. The inoculum was prepared by pouring the nauplii into a crystallizing dish 48 hours after the cysts were originally placed on the shaker. […] The number of nauplii in 3 to 4 wells was counted under a microscope. […]
Plates were read under a low magnification microscope 24 and 48 hours after the nauplii were added to the plate. […]

Dunaliella parva = test: Activity against Dunaliella parva (minimum inhibitory concentration, twofold serial dilution); type: cell-based; conditions: 168 h, read-out: MIC (Minimum Inhibitory Concentration)
Description: Tests were conducted to determine the toxicity of the marine antifouling agents of the present invention to Dunaliella. Dunaliella are indicative of soft fouling organisms.
The effectiveness of the marine antifouling agents of the present invention and 3-iodopropargyl N-butyl carbamate (Comparative) against Dunaliella parva were determined by a twofold serial dilution procedure which determined the Minimum Inhibitory Concentration ("MIC") of test compound required to inhibit the growth of an algal inoculum. […]
Cultures were grown in 50 mL of medium contained in 250 mL baffle flasks with silicone sponge closures (Bellco Glass, Vineland, N.J., #2004-00004, 28 mm), on a rotary shaker under constant cool white illumination. […] The culture was standardized to an absorbance of 0.1 at 490 nm by addition of fresh medium. […]
Solutions of test compound at 40x the highest concentration to be tested were prepared in an appropriate solvent. […] At the end of that time, the plates were examined for growth, as evidenced by easily visible green color, using a mirrored microplate reader.
Results were recorded as the median of the three replicate results and are reported below as the minimum concentration to inhibit growth (MIC).

Compound | Artemia LC100 (highest dilution in which all of the nauplii are dead) (Artemia) [ppm] | MIC (Dunaliella parva; 23° C., one week incubation, median of three replicates) [µg/mL] | MIC (Dunaliella parva) [µg/mL]
CCCCNC(=O)OCC#CI [Comparative, 3-iodopropargyl N-butyl carbamate] | 25 | 6.2 (≈ 22.1 µM) | 
O=C(C(=O)c1ccccc1)c1ccccc1 [R=R^1 =H] | 12.5 |  | 0.6 (≈ 2.85 µM)
